# Source: patent US7863287B2, “Compositions of non-steroidal anti-inflammatory drugs, decongestants and anti-histamines” (Wyeth LLC, priority 2002, dated 2011)
# Where a name gives a salt, the structure may show the parent alone.
# System: seasonal allergic rhinitis
# Assay: Multicenter, placebo-controlled, double-blind, randomized multiple-dose efficacy trial in seasonal allergic rhinitis
# Format: in vivo, human
# Source text: The study was a multicenter, outpatient, multiple-dose, placebo controlled, double-blind, double-dummy, parallel-group, randomized trial.
# The study enrolled 1070 appropriately selected patients who were at least 12 years of age and included both males and females. […] Qualified subjects were required to undergo a 3-30 day run-in phase to establish that the patients had sufficiently severe allergy symptoms, during which time they reflectively assessed the severity of the following symptoms in the morning (upon waking) and in the evening (prior to bedtime): nasal congestion, sneezing, rhinorrhea, itchy nose/throat/palate; itchy/watery/red eyes and headache/facial pain/pressure/discomfort. The severity of each symptom was assessed using a 4-point categorical scale where 0=none (no symptom present), 1=mild (minimal awareness of symptom, symptom easily tolerated), 2=moderate (symptom present and bothersome, but tolerable) and 3=severe (symptom hard to tolerate; may cause interference with daily activities/sleeping). […] Patients were also assessed for allergy associated pain and were asked if they were in pain. […]
smiles,measurement,value
"CN(C)CCC(c1ccc(Cl)cc1)c1ccccn1 (stereo not shown) [chlorpheniramine, chlorpheniramine maleate]","relief of histamine-mediated symptoms, result in words",more effective than the placebo
